Like-named read-outs stand apart in the source and are kept apart here.
What was measured:
[1] = test system: THP-1 cells; test: Measurement of IL-1β production, hTRF protocol (second alternative procedure), THP-1 cells; format: cell-based, human; settings: read-out: NLRP3 hILIB EC50
In short: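 THP-1 cells differentiated overnight with 50 ng/ml PMA, then plated at 50,000 cells/well in RPMI with 2% FBS onto serial compound dilutions (top final concentration 10 μM) for 2 hours at 37° C. Supernatant IL-1β measured by hTRF (antibodies at 1:40, overnight at 4° C), read at 665/615 nm against a standard curve.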

[2] = target: T1, TLR7 (Homo sapiens, UniProt Q9NYK1); test: In vitro human TLR7 binding reporter assay (HEK-Blue, NF-kB/AP1-inducible SEAP); format: cell-based; settings: read-out: TLR7 Agonist EC50
T1 construct: human HEK-Blue cells co-expressing a TLR7 or TLR8 gene
T1 sequence (Q9NYK1 27-1049): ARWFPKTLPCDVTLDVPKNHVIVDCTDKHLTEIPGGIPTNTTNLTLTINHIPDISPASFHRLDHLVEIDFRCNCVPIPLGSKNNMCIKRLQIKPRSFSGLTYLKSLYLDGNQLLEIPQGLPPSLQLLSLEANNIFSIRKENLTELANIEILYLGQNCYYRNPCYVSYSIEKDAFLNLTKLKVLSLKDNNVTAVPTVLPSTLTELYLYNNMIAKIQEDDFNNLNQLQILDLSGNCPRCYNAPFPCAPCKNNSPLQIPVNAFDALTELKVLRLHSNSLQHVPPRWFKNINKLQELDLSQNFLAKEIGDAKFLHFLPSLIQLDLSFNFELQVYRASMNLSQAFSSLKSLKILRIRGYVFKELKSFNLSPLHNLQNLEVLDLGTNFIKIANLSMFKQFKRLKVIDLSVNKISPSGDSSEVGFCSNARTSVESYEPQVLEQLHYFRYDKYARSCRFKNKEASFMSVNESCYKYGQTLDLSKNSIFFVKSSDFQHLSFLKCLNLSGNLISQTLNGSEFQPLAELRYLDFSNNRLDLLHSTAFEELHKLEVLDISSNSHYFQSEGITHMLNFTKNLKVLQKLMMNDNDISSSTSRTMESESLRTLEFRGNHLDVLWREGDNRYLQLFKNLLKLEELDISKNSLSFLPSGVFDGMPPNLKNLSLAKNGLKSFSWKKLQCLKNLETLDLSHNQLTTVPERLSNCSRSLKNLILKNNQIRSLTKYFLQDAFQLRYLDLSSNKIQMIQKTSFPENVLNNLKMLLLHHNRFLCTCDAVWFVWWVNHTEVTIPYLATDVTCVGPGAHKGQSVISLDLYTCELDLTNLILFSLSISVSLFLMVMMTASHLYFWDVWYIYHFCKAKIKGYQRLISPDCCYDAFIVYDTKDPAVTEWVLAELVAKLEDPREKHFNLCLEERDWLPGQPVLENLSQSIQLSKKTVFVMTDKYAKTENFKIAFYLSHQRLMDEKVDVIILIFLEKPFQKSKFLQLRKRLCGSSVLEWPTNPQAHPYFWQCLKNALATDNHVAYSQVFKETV
In short: (§1)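 HEK-Blue cells expressing human TLR7 or TLR8 with NF-kB/AP1-inducible SEAP reporter, plated 24 h, then compound-treated 18 h at 37° C, 5% CO2. EC50 normalized to 100% Ymax set by 50 μM reference standard.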

[3] = target: T2, TLR8 (Homo sapiens, UniProt Q9NR97); test: In vitro human TLR8 binding reporter assay (HEK-Blue, NF-kB/AP1-inducible SEAP); format: cell-based; settings: read-out: TLR8 Agonist EC50
T2 construct: human HEK-Blue cells co-expressing a TLR7 or TLR8 gene
T2 sequence (Q9NR97 27-1041): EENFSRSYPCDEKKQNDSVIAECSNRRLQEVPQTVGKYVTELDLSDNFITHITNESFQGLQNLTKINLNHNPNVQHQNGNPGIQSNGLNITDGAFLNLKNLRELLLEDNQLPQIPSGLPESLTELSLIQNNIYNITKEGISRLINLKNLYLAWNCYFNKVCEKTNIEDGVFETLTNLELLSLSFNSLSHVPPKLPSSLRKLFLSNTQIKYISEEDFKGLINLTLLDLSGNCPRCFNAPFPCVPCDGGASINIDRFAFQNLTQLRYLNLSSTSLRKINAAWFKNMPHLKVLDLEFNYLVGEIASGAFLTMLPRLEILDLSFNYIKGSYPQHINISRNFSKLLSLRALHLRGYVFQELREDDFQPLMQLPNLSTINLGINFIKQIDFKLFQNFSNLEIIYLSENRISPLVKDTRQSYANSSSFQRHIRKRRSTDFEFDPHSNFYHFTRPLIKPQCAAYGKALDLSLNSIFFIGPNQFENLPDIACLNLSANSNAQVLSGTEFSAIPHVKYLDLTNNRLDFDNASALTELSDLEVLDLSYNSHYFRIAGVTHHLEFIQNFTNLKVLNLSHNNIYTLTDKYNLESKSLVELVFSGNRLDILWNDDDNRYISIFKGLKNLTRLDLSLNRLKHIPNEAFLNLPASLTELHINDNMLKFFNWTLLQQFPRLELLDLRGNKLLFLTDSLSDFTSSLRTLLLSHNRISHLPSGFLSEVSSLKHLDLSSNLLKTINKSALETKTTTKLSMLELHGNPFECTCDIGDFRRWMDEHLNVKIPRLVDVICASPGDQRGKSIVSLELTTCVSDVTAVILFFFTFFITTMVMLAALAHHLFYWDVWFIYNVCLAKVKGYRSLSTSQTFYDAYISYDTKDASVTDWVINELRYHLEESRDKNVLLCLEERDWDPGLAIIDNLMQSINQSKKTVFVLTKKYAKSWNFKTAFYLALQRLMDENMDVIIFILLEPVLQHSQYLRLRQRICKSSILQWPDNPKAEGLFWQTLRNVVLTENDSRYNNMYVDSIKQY
In short: as §1

[4] = Homo sapiens, THP-1, IL-1β production, human cells
[5] = Homo sapiens, THP-1, IL-1β production, human

Structure (SMILES)	EC50 [1, 4] [µM]	EC50 ([2]; activity range) [µM]	EC50 ([3]; activity range) [µM]	EC50 [1, 5] [µM]	EC50 ([2]; activity range class) [µM]	EC50 ([3]; activity range class) [µM]	EC50 ([1]; IL-1β production, human) [µM]
CN(C)C(=O)C1(Cn2cc3c(N)nc4cc(-c5ccn[nH]5)ccc4c3n2)CC1 [Example 600]	3.99	> 100	> 100	–	–	–	–
COCCN(C)C(=O)Cn1cc2c(n1)c(N)nc1cc(-c3cc[nH]n3)ccc12 [Example 542]	1.58	> 100	> 100	–	–	–	–
N#CC[C@@H](O)Cn1cc2c(N)nc3cc(-c4cc[nH]n4)ccc3c2n1 [Example 381]	–	–	–	0.74	> 100	> 100	–
Cn1cnc2c(C(=O)NCCn3cc4c(n3)c(N)nc3cc(-c5cc[nH]n5)ccc34)cccc21 [Example 100]	–	–	–	1.67	> 100	> 100	–
Nc1nc2cc(-c3ccn[nH]3)ccc2c2nn(CCNC(=O)c3ccc(F)cn3)nc12 [Example 160]	–	–	–	0.7	> 100	> 100	–
Nc1nc2cc(-c3ccn[nH]3)ccc2c2cn(CCO)cc12 [Example 455]	0.22	> 100	> 100	–	–	–	–
Nc1nc2cc(-n3cccn3)ccc2c2[nH]c(CCCO)cc12 [Example 446]	0.2	> 100	> 100	–	–	–	–
Nc1nc2cc(-c3ccn[nH]3)ccc2c2nn(CC3(C(=O)NCC(F)F)CC3)cc12 [Example 606]	2.46	> 100	> 100	–	–	–	–
CC(=O)NC(C)CCn1cc2c(N)nc3cc(-n4cccn4)ccc3c2n1 (stereo not drawn) [Example 425]	5.73	> 100	> 100	–	–	–	–
Nc1nc2cc(-c3cc[nH]n3)ccc2c2nn(C3CCCC3O)cc12 (single isomer, unassigned) [Example 340]	–	–	–	–	> 100	> 100	0.62
Nc1nc2cc(-c3cc[nH]n3)ccc2c2nn(CCOCC(F)(F)F)cc12 [Example 333]	–	–	–	0.24	> 100	> 100	–
N#Cc1ccc(C(=O)NCCn2cc3c(n2)c(N)nc2cc(-c4cc[nH]n4)ccc23)nc1 [Example 64]	–	–	–	0.48	> 100	> 100	–
CC(O)Cn1cc2c(n1)c(N)nc1cc(-c3ccn[nH]3)ccc12 (stereo not drawn) [Example 451]	1.26	> 100	> 100	–	–	–	–
Nc1nc2cc(-c3cc[nH]n3)ccc2c2nn(Cc3cc(CO)no3)cc12 [Example 408]	1.94	> 100	> 100	–	–	–	–
Nc1nc2cc(-c3ccn[nH]3)ccc2c2nn(CCNC(=O)c3csc(Cl)n3)nc12 [Example 158]	–	–	–	0.97	> 100	20 to 100	–
COc1ccc(CNCCn2cc3c(n2)c(N)nc2cc(-c4cc[nH]n4)ccc23)cc1 [Example 111]	–	–	–	2.09	20 to 100	> 100	–
Nc1nc2cc(-c3cc[nH]n3)ccc2c2c1cnn2Cc1cn[nH]c1 [Example 359]	–	–	–	1.45	> 100	> 100	–
Nc1nc2cc(-c3cc[nH]n3)ccc2c2cn(CC(=O)N3CC(F)(F)C3)nc12 [Example 545]	1.79	> 100	> 100	–	–	–	–

Structure (SMILES)	EC50 [1, 4] [µM]	EC50 ([2]; activity range) [µM]	EC50 ([3]; activity range) [µM]	EC50 [1, 5] [µM]	EC50 ([2]; activity range class) [µM]	EC50 ([3]; activity range class) [µM]	EC50 ([1]; IL-1β production, human) [µM]
Nc1nc2cc(-c3cc[nH]n3)ccc2c2nn(CCO)cc12 [Example 396]	0.65	> 100	> 100	–	–	–	–
Nc1nc2cc(-c3cc[nH]n3)ccc2c2[nH]c(CN3CC(F)(F)C3)cc12 [Example 477]	0.27	> 100	> 100	–	–	–	–
CS(=O)(=O)CCn1cc2c(n1)c(N)nc1cc(-c3cc[nH]n3)ccc12 [Example 170]	–	–	–	1.98	> 100	> 100	–
Nc1nc2cc(-c3cc[nH]n3)ccc2c2nn(CC3(O)CCOCC3)cc12 [Example 320]	–	–	–	6.57	> 100	> 100	–
CC(C(=O)NCc1cccnc1)n1cc2c(N)nc3cc(-c4ccn[nH]4)ccc3c2n1 (stereo not drawn) [Example 565]	4.18	> 100	> 100	–	–	–	–
Nc1nc2cc(-c3cc[nH]n3)ccc2c2nn(CC3CCCO3)cc12 (stereo not drawn) [Example 229]	–	–	–	0.08	> 100	> 100	–
CC(C)(C(=O)NC1CCC1)n1cc2c(N)nc3cc(-c4cc[nH]n4)ccc3c2n1 [Example 524]	2.03	> 100	> 100	–	–	–	–
CCCn1ncc2c(N)nc3cc(-c4cc[nH]n4)ccc3c21 [Example 221]	–	–	–	0.21	> 100	> 100	–
Nc1nc2cc(-c3cc[nH]n3)ccc2c2nn(Cc3ccnc(CO)c3)cc12 [Example 409]	1.47	> 100	> 100	–	–	–	–
Nc1nc2cc(-c3cc[nH]n3)ccc2c2nn(CCCO)cc12 [Example 215]	–	–	–	0.4	> 100	> 100	–
Nc1nc2cc(-c3cc[nH]n3)ccc2c2cn(Cc3cscn3)nc12 [Example 168]	–	–	–	0.2	> 100	20 to 100	–
CN(C)Cc1nc2c(N)nc3cc(-c4ccn[nH]4)ccc3c2s1 [Example 143, 2-[(dimethylamino)methyl]-7-(1H-pyrazol-5-yl)-[1,3]thiazolo[4,5-c]quinolin-4-amine]	–	–	–	0.4	> 100	> 100	–
Cc1nc(C(=O)NCCn2cc3c(n2)c(N)nc2cc(-c4cc[nH]n4)ccc23)cs1 [Example 43]	–	–	–	0.46	> 100	> 100	–
Nc1nc2cc(-c3cc[nH]n3)ccc2c2[nH]c(CCNC(=O)C3CCCO3)cc12 (stereo not drawn) [Example 414]	2.8	> 100	> 100	–	–	–	–
Nc1nc2cc(-c3cc[nH]n3)ccc2c2nn(CCCCO)cc12 [Example 351]	–	–	–	0.64	> 100	> 100	–
Nc1nc2cc(-c3cc[nH]n3)ccc2c2cn(CCCOc3ccccn3)nc12 [Example 3, 7-(1H-pyrazol-3-yl)-2-[3-(pyridin-2-yloxy)propyl]-2H-pyrazolo[3,4-c]quinolin-4-amine]	–	–	–	0.56	> 100	> 100	–
Nc1nc2cc(-c3cc[nH]n3)ccc2c2cn(CC(=O)Nc3ccccn3)nc12 [Example 28]	–	–	–	1.31	> 100	> 100	–
